Assay results from US10781420B2, “Method for producing cerebellar progenitor tissue” (RIKEN, priority 2014, dated 2020).

Columns and labels:
Format in all cases: cell-based
[1] = tested on: Purkinje cells induced from human pluripotent stem cell aggregates; assay: Patch clamp analysis of Purkinje cells induced from human pluripotent stem cells; conditions: AMPA receptor inhibitor
Experimental: Mature Purkinje cells were differentiated from human pluripotent stem cell aggregates according to the method of Example 3. Using the Patch clamp technique, the electrophysiological reaction thereof was analyzed.

Human ES cells (KhES-1) = assay: Differentiation of human ES cell aggregates (SFEBq method) into midbrain-hindbrain boundary neural progenitors
Experimental: Human ES cells (KhES-1) subjected to maintenance culturing on MEF by a conventional method were used. To differentiate human ES cells by the serum-free floating culture of embryoid body-like aggregates with quick reaggregation (SFEBq method), human ES cells were enzymatically dispersed to single cells, according to the method of Nakano et al. (Cell Stem Cell, 10(6), 771-785, 2012), and reaggregated using a low-cell-adhesive V-bottom 96 well plate (SUMITOMO BAKELITE). 6,000 cells were seeded per well, and cultured in, as a differentiation medium, CDM medium [chemical synthesis medium without a growth factor (growth-factor-free Chemically Defined Medium; gfCDM; Wataya et al., Proc. Natl. Acad. Sci. USA, 105, 11796-11801, 2008) supplemented with insulin (7 μg/ml) and apo-transferrin (15 μg/ml)] under 5% CO2 at 37° C.
The seeding day is taken as day 0 of differentiation culturing. […] […] On day 7, ⅓ of the medium was exchanged with a differentiation medium free of Y-27632, SB431542 and Fgf2. On day 14 of culturing, the medium was completely substituted by a differentiation medium free of Y-27632, SB431542 and FGF2. The cell aggregates were fixed and sliced, and tissue differentiation was analyzed by the immunofluorescence method and quantitative PCR method.

[2] = tested on: Human pluripotent stem cell aggregates; assay: Self-formation of cerebellar plate tissue (Kirrel2 positive neuroepithelium) from human pluripotent stem cell aggregates
Experimental: The was aggregates were transferred to a low-cell-adhesion 10 cm dish on and after day 21, and cultured in a neural culture medium (Neurobasal/GlutaMaxI/N2, all Life Technologies). On day 28 of culturing, the total amount of the medium was exchanged with the same neural culture medium, and differentiation of the tissue was analyzed by the immunofluorescence method on day 35 of culturing.
Separated Kirrel2 positive cells, and cerebellar granule cell progenitors prepared from the upper rhombic lip of embryonic day 14 mouse were dispersed into single cells by cell dispersion enzyme (TrypLE, Life Technologies), and cocultured on a cover glass coated with poly D-lysine/laminin in DMEM/F12/10% FBS medium (5% CO2, 37° C.). In coculture, human pluripotent stem cell-derived Kirrel positive cells (1 vol) relative to mouse-derived cerebellar granule cell progenitors (10 vol) were mixed. After 6-12 hr, DMEM/F12/N2/BSA/Tri-iodothyronine (T3) was added to decrease the FBS concentration to about 0.8%.

[3] = tested on: Human pluripotent stem cell aggregates; assay: Formation of cerebellar plate tissue having dorsal-ventral axis pattern by addition of FGF19
Experimental: Human pluripotent stem cell aggregates were cultured according to the methods of Examples 1 and 2. […] The cells were cultured in a neural culture medium (Neurobasal/GlutaMaxI/N2) on and after day 21. On day 28, the total amount of the medium was exchanged with the same medium, and on day 35, tissue differentiation was analyzed by the immunofluorescence method.

[4] = tested on: Human pluripotent stem cell aggregates; assay: Formation of rhombic lip and 3 layer structure of cerebellar plate by addition of SDF1
Experimental: Human pluripotent stem cell aggregates were cultured according to the method of Example 6. On and after day 21, the cells were cultured in a neural culture medium (Neurobasal/GlutaMaxI/N2). On day 28, the total amount of the medium was exchanged with the same medium, and SDF1 was added at a final concentration of 300 ng/ml. On day 35, differentiation of the tissue was analyzed by the immunofluorescence method.

[5] = tested on: Human pluripotent stem cell aggregates; assay: Formation of rhombic lip in cerebellar plate tissue by addition of GDF7
Experimental: Human pluripotent stem cell aggregates were cultured according to the method of Example 6. […] The cells were continuously cultured in a neural culture medium (Neurobasal/GlutaMaxI/N2). On day 28, the total amount of the medium was exchanged with the same medium free of GDF7, and on day 35, the cells were analyzed by the immunofluorescence method and the quantitative PCR method.

[6] = FGF2 50 ng/ml day 2 to day 7 vs Fgf2 non-addition, quantitative PCR
[7] = FGF19 100 ng/ml added on day 14, analysed day 35
[8] = SDF1 300 ng/ml added on day 28, analysed day 35
[9] = GDF7 100 ng/ml added on day 21, day 35, quantitative PCR
[10] = GDF7 added from day 14 of culturing

NS(=O)(=O)c1cccc2c1c([N+](=O)[O-])cc1nc(O)c(O)nc12 [NBQX]
miniature excitatory postsynaptic current [1]: suppression of miniature excitatory postsynaptic current

NC(=O)c1ccc(-c2nc(-c3ccc4c(c3)OCO4)c(-c3ccccn3)[nH]2)cc1 [SB431542, 4-(5-benzol[1,3]dioxol-5-yl-4-pyridin-2-yl-1H-imidazol-2-yl)-benzamide, reference compound]
induction of differentiation into neural progenitors (Human ES cells (KhES-1); SB431542 3 μM): induction of differentiation into neural progenitors was also observed | differentiation into neural progenitors in the midbrain-hindbrain boundary (Human ES cells (KhES-1); SB431542 10-30 μM): induced differentiation into neural progenitors in the midbrain-hindbrain boundary

C[C@@H](N)[C@H]1CC[C@H](C(=O)Nc2ccncc2)CC1 [Y-27632, (+)-(R)-trans-4-(1-aminoethyl)-N-(4-pyridyl)cyclohexanecarboxamide, reference compound]
aggregate formation of human ES cells (Human ES cells (KhES-1); when Y-27632 was not added): did not form an aggregate

CC1=C2C[C@H]3[C@@H](CC=C4C[C@@H](O)CC[C@@]43C)[C@@H]2CC[C@]12O[C@@H]1C[C@H](C)CN[C@H]1[C@H]2C [cyclopamine, reference compound]
cerebellar plate formation from human pluripotent stem cells ([2]; Hedgehog inhibitor added): did not significantly promote cerebellar plate formation

FGF2: known cytokine also called basic fibroblast growth factor (bFGF); first fibroblast growth factor
differentiation into neural progenitors in the midbrain-hindbrain boundary (Human ES cells (KhES-1); FGF2 20 ng/ml): promoted differentiation into neural progenitors in the midbrain-hindbrain boundary | expression of forebrain markers Six3 and Otx2 (Human ES cells (KhES-1); [6]): suppressed | expression of midbrain-hindbrain boundary markers En2, Gbx2 (Human ES cells (KhES-1); [6]): markedly increased | differentiation into neural progenitors in the midbrain-hindbrain boundary (Human ES cells (KhES-1); FGF2 100 ng/ml): promoted differentiation into neural progenitors in the midbrain-hindbrain boundary | differentiation into neural progenitors in the midbrain-hindbrain boundary (Human ES cells (KhES-1); FGF2 5-10 ng/ml (concentration used for maintenance culturing of ES cells)): did not show promotion of differentiation | differentiation into neural progenitors in the midbrain-hindbrain boundary (Human ES cells (KhES-1); FGF2 added days 2-7): showed the highest effect | differentiation into neural progenitors in the midbrain-hindbrain boundary (Human ES cells (KhES-1); FGF2 added days 2-14): exhibited a promoting effect | differentiation into neural progenitors in the midbrain-hindbrain boundary (Human ES cells (KhES-1); FGF2 added days 3-7): exhibited a promoting effect | differentiation into neural progenitors in the midbrain-hindbrain boundary (Human ES cells (KhES-1); FGF2 added days 4-7): exhibited a promoting effect | differentiation into neural progenitors in the midbrain-hindbrain boundary (Human ES cells (KhES-1); FGF2 added from day 0): remarkable promotion of differentiation into neural progenitors in the midbrain-hindbrain boundary was not observed | differentiation into neural progenitors in the midbrain-hindbrain boundary (Human ES cells (KhES-1); FGF2 added from day 1): remarkable promotion of differentiation into neural progenitors in the midbrain-hindbrain boundary was not observed | expression of Fgf8 and Wntl (isthmic organizer) (Human ES cells (KhES-1); FGF2 addition, days 10 and 14): enhanced | kirrel2 positive cells (FACS, anti-kirrel2 antibody) ([2]; day 35, cells exposed to Fgf2): ~30%

FGF19: known cytokine, human ortholog of mouse Fgf15; second fibroblast growth factor
effect (frequency) on dorsal-ventral polarity formation relative to that at 100 ng/ml ([3]; FGF19 50 ng/ml): about ⅓ | formation of structure having polarity along the dorsal-ventral axis of neural tube ([3]; FGF19 50 ng/ml): promoted formation of a structure having polarity along the dorsal-ventral axis of the neural tube | formation of continuous flat-oval neuroepithelial structure in the cell aggregate [3, 7]: promoted formation of a continuous flat-oval neuroepithelial structure | formation of structure having polarity along the dorsal-ventral axis of neural tube [3, 7]: resulted in the formation of a structure having polarity along the dorsal-ventral axis of neural tube | effect (frequency) on dorsal-ventral polarity formation relative to that at 100 ng/ml ([3]; FGF19 300 ng/ml): of the same level as that at 100 ng/ml | formation of the dorsal-ventral axis pattern ([3]; FGF19 300 ng/ml): similarly promoted formation of the dorsal-ventral axis pattern | formation of a dorsal-ventral axis pattern ([3]; FGF19 added on day 10 of culturing): formation of a dorsal-ventral axis pattern was promoted, though the efficiency was low

SDF1: known chemokine also called CXCL12, secreted ligand for chemokine receptor 4 (CXCR4)
formation of rhombic lip and 3 layer structure of cerebellar plate ([4]; SDF1 100 ng/ml): promoted formation of rhombic lip and formation of a 3 layer structure of cerebellar plate | configuration of the rhombic lip [4, 8]: enables continuous configuration of the rhombic lip | formation of continuous kirrel2 positive neuroepithelial structure [4, 8]: promoted formation of a continuous kirrel2 positive neuroepithelial structure | formation of rhombic lip and 3 layer structure of cerebellar plate ([4]; SDF1 500 ng/ml): promoted formation of rhombic lip and formation of a 3 layer structure of cerebellar plate | formation of rhombic lip and 3 layer structure of cerebellar plate ([4]; SDF1 added from day 21): an effect similar to that when added from day 28 was observed

Sonic Hedgehog
formation of polarized cerebellar plate ([2]; addition of Sonic Hedgehog to human pluripotent stem cell culturing system): conversely promotes formation of polarized cerebellar plate

laminin
formation of rhombic lip and 3 layer structure of cerebellar plate ([4]; used in place of SDF1): could not substitute SDF1

B1: FGF8: fibroblast growth factor used instead of FGF19 (protein, UniProt P55075 23-233, looked up)
Fibroblast growth factor 8: QEGPGRGPALGRELASLFRAGREPQGVSQQHVREQSLVTDQLSRRLIRTYQLYSRTSGKHVQVLANKRINAMAEDGDPFAKLIVETDTFGSRVRVRGAETGLYICMNKKGKLIAKSNGKGKDCVFTEIVLENNYTALQNAKYEGWYMAFTRKGRPRKGSKTRQHQREVHFMKRLPRGHHTTEQSLRFEFLNYPPFTRSLRGSQRTWAPEPR
formation of a dorsal-ventral axis pattern ([3]; used instead of FGF19): promoted like FGF19, though the effect was weaker than FGF19

B2: FGF17: fibroblast growth factor used instead of FGF19 (protein, UniProt O60258 23-216, looked up)
Fibroblast growth factor 17: TQGENHPSPNFNQYVRDQGAMTDQLSRRQIREYQLYSRTSGKHVQVTGRRISATAEDGNKFAKLIVETDTFGSRVRIKGAESEKYICMNKRGKLIGKPSGKSKDCVFTEIVLENNYTAFQNARHEGWFMAFTRQGRPRQASRSRQNQREAHFIKRLYQGQLPFPNHAEKQKQFEFVGSAPTRRTKRTRRPQPLT
formation of a dorsal-ventral axis pattern ([3]; used instead of FGF19): promoted like FGF19, though the effect was weaker than FGF19

B3: GDF7: known cytokine promoting differentiation into cerebellar granule cell progenitors and formation of rhombic lip (protein, UniProt Q7Z4P5 322-450, looked up)
Growth/differentiation factor …: TALAGTRTAQGSGGGAGRGHGRRGRSRCSRKPLHVDFKELGWDDWIIAPLDYEAYHCEGLCDFPLRSHLEPTNHAIIQTLLNSMAPDAAPASCCVPARLSPISILYIDAANNVVYKQYEDMVVEACGCR
expression of Atoh1 positive cell in neural progenitor tissue ([5]; GDF7 100 ng/ml added on day 21, analysed day 35, immunofluorescence): promoted expression of Atoh1 positive cell | Atoh1 gene level relative to that by the addition of FGF2 (first comparison printed) [5, 9]: about 220 fold | Atoh1 gene level relative to that by the addition of FGF2 (second comparison printed) [5, 9]: 1.5 fold | growth of cell aggregate [5, 10]: growth of cell aggregate was inhibited | induction of Atoh1 positive cell [5, 10]: Atoh1 positive cell was induced | formation of the rhombic lip ([5]; GDF7 not removed from the medium on and after day 28): adverse influence on the formation of the rhombic lip was not found

B4: BMP4: factor known to promote formation of rhombic lip in mouse (protein, UniProt P12644 293-408, looked up)
Bone morphogenetic protein 4: SPKHHSQRARKKNKNCRRHSLYVDFSDVGWNDWIVAPPGYQAFYCHGDCPFPLADHLNSTNHAIVQTLVNSVNSSIPKACCVPTELSAISMLYLDEYDKVVLKNYQEMVVEGCGCR
formation of the rhombic lip from human pluripotent stem cell ([5]; BMP4 used instead of GDF7): could not be induced
